Results on two compounds are retold here after patent US9945841B2, “Cell cycle measuring method based on an electrochemical method” (INDUSTRY-UNIVERSITY COOPERATION FOUNDATION SOGANG UNIVERSITY, priority 2011, dated 2018).

The structures appear in SMILES notation.

Format in all cases: cell-based, rat
Test [1] deals with PC12 cells. In words: FACS cell-cycle distribution of on-chip synchronized cells. The conditions noted are these: 2 mM thymidine 18 hrs. The protocol: (§1) A silicon-based gold electrode was first cleaned with freshly prepared piranha solution (1:3 mixture of 30% H2O2 and concentrated H2SO4) for 5 min and then rinsed thoroughly with double-distilled water. The electrode was then carefully polished by sonication in absolute alcohol and double-distilled water for 5 min. Finally, the electrode was electrochemically cleaned in 0.5 M H2SO4 until a stable cyclic voltammogram was obtained and then dried with purified nitrogen. After the pretreatment, a well ordered oligopeptide (RGD-MAP-C) was fabricated on the freshly cleaned gold electrode as reported in our previous work (15). For the electrochemical measurements, a 2 cm×1 cm×0.5 cm (width×length×height) cell chip chamber was fabricated by fixing a plastic chamber (Lab-Tek®, Thermo fisher scientific, USA) to the Au working electrode using PDMS (Polydimethylsiloxane). Afterward, rat pheochromocytoma (PC12) cells were seeded on the electrode at a density of 2×10^5 cells/chip and then immobilized via RGD-integrin interaction for 24 hrs in a standard cell culture environment. The cell-immobilized electrode was treated with 2 mM thymidine in culture medium (RPMI 1640) for 18 hrs, followed by an 8 hrs release (replaced by fresh medium), and then again with 2 mM thymidine for another 18 hrs to block cells in G1/S-phase (FIG. 1c). […]

Another test concerns phosphohistone (p-HH^3). Briefly: Western blot of synchronized PC12 cells, G2/M-phase specific protein p-HH3. Conditions: Western blot of G1/S- or G2/M-blocked PC12 cells (FIG. 3d). As to the method: (§2) The cell-immobilized electrode was treated with 2 mM thymidine in culture medium (RPMI 1640) for 18 hrs, followed by an 8 hrs release (replaced by fresh medium), and then again with 2 mM thymidine for another 18 hrs to block cells in G1/S-phase (FIG. 1c). Similarly, another cell-immobilized electrode was treated initially with 2 mM thymidine as mentioned before for 18 hrs, followed by a 4 hrs release (replaced by fresh medium), and then with 100 ng/ml of nocodazole for another 10 h to block cells in G2/M-phase (FIG. 1c). Therefore, the working electrodes were prepared for electrochemical signal analysis of the cells in different phases of the cell cycle. Furthermore, for the time-dependent progression of G1/S-phase towards G2/M-phase, G1/S-blocked cells were released in fresh medium containing 10% FBS for several hours to perform electrochemical measurements. The synchronized PC12 cell pellet was solubilized for 15 min at 4° C. in lysis buffer. Lysates were centrifuged at 13,000 g for 30 min at 4° C. in order to remove insoluble material. The supernatant was then collected, and the protein concentration was determined using BCA protein assay reagent (Pierce Chemicals). […]

Test [2] deals with PC12 cells. In words: Differential pulse voltammetry (DPV) of cells on Au/RGD-MAP-C cell chip. Conditions: PC12 cells on Au electrode; double thymidine block; PBS 0.01 M pH 7.4; vs Ag/AgCl (FIG. 2b). The protocol: as §1
For another test, the system named is cyclin B1. In words: Western blot of synchronized PC12 cells, cyclin B1. The conditions noted are these: Western blot of G1/S- or G2/M-blocked PC12 cells (FIG. 3d). The protocol: as §2

Consider `COC(=O)Nc1nc2ccc(C(=O)c3cccs3)cc2[nH]1` [nocodazole], for which the “cells synchronized in G2/M-phase” value with PC12 cells [1] (4 hrs release, 100 ng/ml nocodazole 10 h, FACS (FIG. 3c)) was around 72%. The “p-HH^3 expression” value with phosphohistone (p-HH^3) is given as “expressed”.

For the compound `Cc1cn([C@H]2C[C@H](O)[C@@H](CO)O2)c(=O)[nH]c1=O` [thymidine, Thymidine], in the test on PC12 cells [1] (8 hrs release, FACS (FIG. 3b)), the “cells fixed in G1/S-phase” value is “Approximately 75%”. The “p-HH^3 expression” value in the test on phosphohistone (p-HH^3) is given as “absent”. Moreover, the “DPV peak potential of G1/S-phase blocked cells” value in the test with PC12 cells [2] is recorded as “+50 mV”. Moreover, the “cyclin B1 expression” value in the test with cyclin B1 was “expressed dominantly”.
